Data taken from patent publication US20090209605A1, “NEMATICIDAL COMPOSITIONS” (Devgen N.V., priority 2004, published 2009).

Key:
Type in all cases: in vivo
[1] = test system: Meloidogyne incognita; experiment: Root infestation on agar plate: root knot count on potato microplant roots; conditions: 60 μM in agar, galls counted 5 weeks after inoculation, four replicates
Method: 9 cm petri dishes were filled with a 15 ml agar. One stem cutting of a potato microplant (Solanum tuberosum cv. Desirée) was placed on top of the agar layer. After 2 to 3 weeks of incubation at 20° C., the root system was sufficiently developed to be inoculated.
The test compounds (see Table 1) were added 2 days before inoculation by way of spreading a 2 ml DMSO-solution with the compound over the agar and allowing the compound to diffuse in the agar during two days at constant temperature of 20° C. During incubation, the plates are protected from light in a dark incubator. The resulting concentration of each compound in each agar plate was 60 μM.
After incubation, approximately 400 axenic juveniles of Meloidogyne incognita species were added to the plate.
The plates were incubated in the dark at a constant temperature of 20° C. and 5 weeks after inoculation the number of galls formed on the roots were determined by counting. Also any toxic effect of the test compounds on the roots was recorded. 8 weeks after inoculation the plates were stored at low temperature.
Each compound was tested in four replicates. Positive controls were treated with different concentrations of Aldicarb, a known nematicide. Negative controls included 5 replicates of double negative controls (no compound, no nematode), 5 replicates of single negative controls (no compound, with nematode) and 5 replicates of DMSO controls (DMSO solution, with nematode).

[2] = test system: Meloidogyne nematodes; experiment: Pot Assay 2: Meloidogyne infection of tomato, % infestation of roots; conditions: for % INF. (% Infestation): tomato in infested soil
Method: The soil used in this assay originated from a plot, heavily infested with Meloidogyne nematodes. Part of this soil was sterilized by autoclaving and was used as negative control. Sandy soil, which was not infested with nematodes, was pursued from a commercial source.
Plastic seedling trays with wells of 60 ml capacity were filled with about 40 ml of soil per well. 5 ml of water per well was used for irrigation.
Compounds as described herein were tested in 4 different rates and with 12 replicates for each concentration. The compounds as described herein were stored as dry films of 4 different concentrations. The day of the application of the compounds, all the dry films were dissolved in 60 ml water and poured into the 12 replicate wells: 5 ml per well. Every tray of 12 wells was identified with a label, indicating compound and concentration used. The 4 final rates in the soil of the tested compound were approximately 0.05 mg, 0.20 mg, 1 mg and 5 mg. These amounts translate to field application rates respectively as 30, 120, 600 and 3000 g per hectare.
3-5 days after application of the tested compound, tomato seeds (cv. Rio Grande) were sown in the wells by hand, at about 2 cm deep. A light cover of vermiculite on the surface was used to avoid dehydration. Plants were irrigated by micro-nebulization 3-4 times per week at a rate of 3 L/m^2, weeded by hand and treated with fertilizers, fungicide and insecticides when needed.
Their resistance against nematode infection was monitored and the efficacy of compounds described herein as a nematicide was measured. Furthermore the phytotoxicity of the test compounds was evaluated.
Efficacy of the compounds described herein as nematicide was measured by giving the roots a percentage of infestation measured as follows. Plants were grown to reach good development of the roots, which corresponds to plants grown to about 10 cm high at about one month after emergence. After removal of the soil from the roots by rinsing with water, the roots were visually inspected and root galls were counted on 4 plants of the set of 12 replicate plants.
Positive control plants were treated with a 10 micromolar concentration of oxamyl (Vydate, 10% SL; the rate of 10 micromolar corresponds to a commercial rate of 20 l/ha), a known nematicide. Negative controls involved double negative controls (no compound, sterile soil), and single negative controls (no compound, with nematode infested soil).

[3] = test system: Meloidogyne incognita nematodes; experiment: Pot Assay 1: Meloidogyne infection of potato, egg masses/galls on roots; conditions: for number of egg masses (galls) on roots, Replicate 1 / number of egg masses (galls) on roots, Replicate 2 / number of egg masses (galls) on roots, Replicate 3: potato in pot, week 8 after inoculation
Method: 500 ml clay pots were filled with 400 ml of silver sand. One tuber of potato ( Solanum tuberosum cv. Bintje) was planted in the sand. After 2 to 3 weeks incubation, the potato plant was sufficiently developed to be inoculated.
Plants were grown under the usual standard greenhouse conditions at 14° C.-18° C., with 16 hours light and 8 hours dark and 80-90% relative humidity. The pots were watered using individual drippers and fertilizers were added under the form of macro- and micro nutrients according to plant growth requirements. When needed, the plants were sprayed with fungicides and insecticides.
The compounds as described herein were added one day before inoculation. The compounds were dissolved in a 20 ml DMSO-solution and spread over the sand surface. The final concentration is calculated under the assumption that the compound is diffused entirely in the pot. This process occurred during two days at the normal greenhouse conditions described above.
After compound incubation, approximately 1500 juveniles of Meloidogyne incognita nematodes were added to the pots.
The pots were incubated at the described greenhouse conditions until nematode development was completed. At week 8 after inoculation the number of galls formed on the roots was counted after washing off the sandy substrate. Also the effect of the compound on the plant development was recorded.
Every compound was tested in three replicates. Positive control plants were treated with different concentrations of aldicarb, a known nematicide. Negative controls involved 12 replicates of double negative controls (no compound, no nematode), 12 replicates of single negative controls (no compound, no DMSO, with nematode), 24 replicates of DMSO controls (DMSO solution, with nematode).
As assessment of the root development was taken into account.

[4] = test system: tomato (cv. Rio Grande); experiment: Pot Assay 2: root development (vigor of roots) of tomato; conditions: for ROOT DEV.: visual value 0 to 10 (10 equal to control)
Method: Phytotoxicity of compounds as described herein when used as a nematicide, was measured as follows. […] At that moment, plant emergence was assessed for the plants treated with any of the compounds as described herein, by counting the number of plants per compound-concentration.
Vigor of roots was also assessed once the plants are well established so as not to loose plants. To assess vigor of the plants or roots, a visual value ranging from 0 to 10 (0 no vigor, 10 equal to control) was scored per compound-concentration.

[5] = highest concentration of the reference compound
[6] = reference, 10 micromolar (Vydate, 10% SL)

SMILES	Root knot count, average of the replicate counts [1]	% INF. (% Infestation) ([2]; RATE 1 mg) [%]	ROOT DEV. ([4]; RATE 1 mg)	% INF. (% Infestation) ([2]; RATE 0.05 mg) [%]	% INF. (% Infestation) ([2]; RATE 0.2 mg) [%]	ROOT DEV. ([4]; RATE 0.05 mg)	ROOT DEV. ([4]; RATE 0.2 mg)	other results
CC(C)=CC1C(C(=O)OCN2C(=O)C3=C(CCCC3)C2=O)C1(C)C (mixture of isomers) [LIX]	19	–	–	–	–	–	–	–
CC(C)=CC1C(C(=O)OCc2coc(Cc3ccccc3)c2)C1(C)C (mixture of isomers) [LVII]	8.5	–	–	–	–	–	–	–
CC1COC(Cn2cncn2)(c2ccc(Oc3ccc(Cl)cc3)cc2Cl)O1 (mixture of isomers) [XLIX]	19.25	0.0	7.9	–	–	–	–	number of egg masses (galls) on roots, Replicate 1 ([3]; 10 μM): 70; number of egg masses (galls) on roots, Replicate 2 ([3]; 10 μM): 60; number of egg masses (galls) on roots, Replicate 3 ([3]; 10 μM): 40; number of egg masses (galls) on roots, Replicate 2 ([3]; 50 μM): 60; number of egg masses (galls) on roots, Replicate 3 ([3]; 50 μM): 10
Cc1c(F)c(F)c(COC(=O)C2C(C=C(Cl)C(F)(F)F)C2(C)C)c(F)c1F (racemic) [LVIII]	18.25	–	–	–	–	–	–	number of egg masses (galls) on roots, Replicate 1 ([3]; 50 μM): 60; number of egg masses (galls) on roots, Replicate 2 ([3]; 50 μM): 100; number of egg masses (galls) on roots, Replicate 3 ([3]; 50 μM): 30
CNC1=C(c2cccc(C(F)(F)F)c2)C(=O)C(c2ccccc2)O1 (racemic) [XV]	18	–	–	–	–	–	–	–
CNC(=O)O/N=C/C(C)(C)SC [Aldicarb, reference compound]	–	–	–	–	–	–	–	egg mass development (number of egg masses) [3, 5]: 41; reduction of the egg mass development, fraction of control [3, 5]: about ⅓; effect on the nematode development ([3]; three lowest concentrations of the reference compound): no effect
CCC(N)P(=O)(O)O (stereo not drawn) [II]	6.5	0.0	7.3	0.0	0.0	6.7	7.3	% INF. (% Infestation) ([2]; RATE 5 mg): 0.0%; ROOT DEV. ([4]; RATE 5 mg): 7.9
N#Cc1c(Cl)c(Cl)c(Cl)c(C#N)c1Cl [IV]	11.5	–	–	–	–	–	–	–
CCNC(=O)NC(=O)C(C#N)=NOC [LII]	15.5	–	–	–	–	–	–	–
Cc1cccc(C)c1N(C(=O)CCl)C1CCOC1=O (stereo not drawn) [LIV]	14.5	3.8	7.6	5.0	5.0	7.5	7.2	% INF. (% Infestation) ([2]; RATE 5 mg): 2.5%; ROOT DEV. ([4]; RATE 5 mg): 6.6
O=C(NC(=O)c1c(F)cccc1F)Nc1cc(Cl)c(Oc2ncc(C(F)(F)F)cc2Cl)c(Cl)c1 [LI]	17.5	–	–	–	–	–	–	–
COCC(=O)N(c1c(C)cccc1C)N1CCOC1=O [LV]	17.75	–	–	–	–	–	–	–
CNC(=O)O/N=C(\SC)C(=O)N(C)C [Oxamyl, reference compound]	–	13.8	7.5	–	–	–	–	percentage of infestation [2, 6]: 13.8%; root development [4, 6]: 7.5
CC(C)N(C(=O)COc1nnc(C(F)(F)F)s1)c1ccc(F)cc1 [XIII]	9.5	–	–	–	–	–	–	number of egg masses (galls) on roots, Replicate 3 ([3]; 10 μM): 40; number of egg masses (galls) on roots, Replicate 1 ([3]; 50 μM): 60; number of egg masses (galls) on roots, Replicate 3 ([3]; 50 μM): 30
CC(C)(C)N(NC(=O)c1ccc(Cl)cc1)C(=O)c1ccccc1 [XIX]	10.75	–	–	–	–	–	–	number of egg masses (galls) on roots, Replicate 3 ([3]; 10 μM): 80; number of egg masses (galls) on roots, Replicate 1 ([3]; 50 μM): 60; number of egg masses (galls) on roots, Replicate 2 ([3]; 50 μM): 45; number of egg masses (galls) on roots, Replicate 3 ([3]; 50 μM): 20
Clc1nc(Cl)nc(Nc2ccccc2Cl)n1 [XLII]	17.25	0.0	8.2	3.8	0.0	6.8	6.9	% INF. (% Infestation) ([2]; RATE 5 mg): 0.0%; ROOT DEV. ([4]; RATE 5 mg): 8.1
CC(C)(C)C(O)C(Oc1ccc(-c2ccccc2)cc1)n1cncn1 (stereo not drawn) [XLVIII]	12.75	3.8	7.2	0.0	1.3	7.5	7.4	% INF. (% Infestation) ([2]; RATE 5 mg): 1.3%; ROOT DEV. ([4]; RATE 5 mg): 7.8
Cc1cc(C)nc(Nc2ccccc2)n1 [XLVI]	18.25	–	–	–	–	–	–	–
Nc1nc(N)nc(NC2CC2)n1 [XLV]	19.5	–	–	–	–	–	–	–
O=[N+]([O-])N=C1NCCN1Cc1ccc(Cl)nc1 [XXII]	12	–	–	–	–	–	–	–
C#CCOC(=O)/C=C(C)/C=C/CC(C)CCCC(C)C (stereo not drawn) [XXVIII]	8.5	–	–	2.5	1.3	7.4	7.8	–
CS(=O)(=O)c1cc(C(F)(F)F)ccc1C(=O)c1cnoc1C1CC1 [XXVI]	8.75	0.0	7.8	1.3	3.8	7.4	6.6	–
CCOc1ccc([Si](C)(C)CCCc2ccc(F)c(Oc3ccccc3)c2)cc1 [XXXIII]	17.5	–	–	–	–	–	–	–
CCCCOCCOCCOCc1cc2c(cc1CCC)OCO2 [XXXII]	19.25	1.3	7.6	0.0	0.0	6.5	7.6	% INF. (% Infestation) ([2]; RATE 5 mg): 2.5%; ROOT DEV. ([4]; RATE 5 mg): 6.7
CCc1nn(C)c(C(=O)NCc2ccc(C(C)(C)C)cc2)c1Cl [XXXVIII]	16.5	–	–	–	–	–	–	number of egg masses (galls) on roots, Replicate 1 ([3]; 50 μM): 40; number of egg masses (galls) on roots, Replicate 2 ([3]; 50 μM): 70; number of egg masses (galls) on roots, Replicate 3 ([3]; 50 μM): 1
COc1ccc(/C(=C/C(=O)N2CCOCC2)c2ccc(Cl)cc2)cc1OC [X]	10.5	–	–	5.0	1.3	6.8	7.9	–
